Reference: patent publication US11865124B2, “Vitamin c and doxycycline: a synthetic lethal combination therapy for eradicating cancer stem cells (CSCS)” (priority 2017, dated 2024)
pIC50: −log10 of the molar value. Where two headings read alike, the source gives them in different places.

Legend:
MCF7-DoxyR cells [1] = assay: Mammosphere formation assay (CSC propagation) in doxycycline-resistant MCF7 cells; assay type: cell-based
From the text: To test this hypothesis, the inventors generated a cancer cell sub-population metabolically synchronized toward a glycolytic phenotype by chronically treating MCF7 cells with the FDA-approved antibiotic doxycycline, a mitochondrial inhibitor. Briefly, MCF7 cells were obtained from ATCC and cultured in DMEM (Sigma Aldrich). MCF7 cells resistant to doxycycline (MCF7-DoxyR cells) were selected by a stepwise exposure to increasing concentrations of doxycycline. […] It should be appreciated that other cancer cell lines and other mitochondrial (oxidation) inhibitors may be used.
To more directly assess functional CSC activity, mammosphere formation assays may be used. Briefly, a single cell suspension of MCF7 or MCF7 DoxyR cells may be prepared using enzymatic (1× Trypsin-EDTA, Sigma Aldrich), and manual disaggregation (25-gauge needle). Cells may be plated at a density of 500 cells/cm2 in mammosphere medium (DMEM-F12/B27/20-ng/ml EGF/PenStrep) in nonadherent conditions, in culture dishes coated with (2-hydroxyethylmethacrylate) (poly-HEMA, Sigma), in the presence of Atovaquone (FIG. 6A) or Chloroquine (FIG. 6B). Cells may be grown for 5 days and maintained in a humidified incubator at 37° C. at an atmospheric pressure in 5% (v/v) carbon dioxide/air. After 5 days for culture, spheres larger than 50 μm may be counted using an eye piece graticule, and the percentage of cells plated which formed spheres may be calculated. Mammosphere assays may be performed in triplicate and repeated three times independently.
The present approach further involves methods of testing the efficacy of glycolysis inhibitors on CSC propagation using other clinically-approved drugs that functionally behave as OXPHOS inhibitors (Irinotecan, Sorafenib, Niclosamide) or glycolysis inhibitors (Stiripentol) on mammosphere formation. Briefly, MCF7 DoxyR cells were cultured in low attachment plates and treated with Vehicle or increasing concentrations of the lactate dehydrogenase (LDH) inhibitor Stiripentol (2 μM to 100 μM) (FIG. 11A) or the OXPHOS inhibitors Irinotecan (500 nM to 80 μM) (FIG. 11B), Sorafenib (500 nM to 40 μM) (FIG. 11C), Berberine Chloride (500 nM to 10 μM) (FIG. 11D) and Niclosamide (FIG. 11E-F) for 5 days before counting. Independent experiments were performed in triplicate.

MCF7 CSCs = conditions: control MCF7 CSCs; Bonuccelli et al, Oncotarget 2017; read-out: IC-50, MCF7 CSC propagation; cited from earlier work
MCF7-DoxyR cells [2] = assay: Cell migration, wound healing scratch assay; assay type: cell-based; conditions: MCF7-DoxyR cells (chronic doxycycline) vs MCF7 cells, 24 h
From the text: (§1) To test this hypothesis, the inventors generated a cancer cell sub-population metabolically synchronized toward a glycolytic phenotype by chronically treating MCF7 cells with the FDA-approved antibiotic doxycycline, a mitochondrial inhibitor. Briefly, MCF7 cells were obtained from ATCC and cultured in DMEM (Sigma Aldrich). MCF7 cells resistant to doxycycline (MCF7-DoxyR cells) were selected by a stepwise exposure to increasing concentrations of doxycycline. Specifically, MCF7 cells were initially exposed to 12.5 μM doxycycline, followed by 3 weeks of treatment with 25 μM doxycycline, followed by 3 weeks of treatment with 50 μM doxycycline. The doxycycline-resistant MCF7 cells were then routinely maintained in regular medium supplemented with 25 μM Doxycycline. It should be appreciated that other cancer cell lines and other mitochondrial (oxidation) inhibitors may be used.
The present approach further involves methods of analyzing the effects of chronic treatment on functionality by considering cell migration. […] The migration assay was evaluated using Incucyte Zoom (Essen Bioscience). The rate of migration was measured by quantifying the % of wound closure area, determined using the software ImageJ, according to the formula: % of wound closure=[(At=0 h−At=Δ h)/At=0 h]×100%. […] Statistical significance was measured using the t-test. […]

MCF7-DoxyR cells [3] = assay: Proliferation assay by EdU incorporation (flow cytometry); assay type: cell-based; conditions: MCF7-DoxyR cells (chronic doxycycline) vs MCF7 cells
From the text: as §1, with “The doxycycline-resistant MCF7 cells were then routinely maintained in regular medium supplemented with 25 μM Doxycycline. It should be appreciated that other cancer cell lines and other mitochondrial (oxidation) inhibitors may be used.” left out
To determine functional effects on doxycycline on CSC propagation, proliferation may be measured by determining relative levels of EdU incorporation (EdU refers to the alkyne-containing thymidine analog (5-ethynyl-2′-deoxyuridine) which is incorporated into DNA during active DNA synthesis). […] EdU was detected after permeabilization by staining cells with Click-iT Plus reaction cocktail containing the Fluorescent dye picolylazide for 30 min at room temperature. Samples were then washed and analyzed using flow cytometer. […] Data were analyzed using FlowJo software. FIGS. 7A-B show MCF7-DoxyR cells have a reduced ability to proliferate by more than 60%, as measured using EdU-incorporation.

[4] = Homo sapiens, mammosphere formation, MCF7 DoxyR cells, read-out: IC-50, DoxyR CSC propagation
[5] = Homo sapiens, 120 h, mammosphere formation, MCF7 DoxyR cells, 5 days, read-out: IC-50, DoxyR CSC propagation
[6] = Homo sapiens, MCF7, 120 h, read-out: inhibition of CSC propagation of MCF7-DoxyR cells

## O=C1O[C@H]([C@@H](O)CO)C(O)=C1O [Vitamin C, ascorbic acid]
MCF7-DoxyR cells [1]; Homo sapiens, MCF7, 250 μM Vitamin C
  inhibition at 250 µM: > 90%
MCF7-DoxyR cells [1]; Homo sapiens, MCF7, 500 μM Vitamin C
  inhibition at 500 µM: 100%
MCF7-DoxyR cells [1]; [4]
  pIC50: 3.60 to 4.00
MCF7-DoxyR cells [1]; ratio of IC-50 in MCF7 CSCs to DoxyR CSCs, identical assay conditions
  fold more sensitive, DoxyR CSCs vs control MCF7 CSCs: 4-10 fold
MCF7 CSCs
  pIC50: 3.00

## O=C1C(O)=C([C@H]2CC[C@H](c3ccc(Cl)cc3)CC2)C(=O)c2ccccc21 [Atovaquone]
MCF7-DoxyR cells [1]; Homo sapiens, MCF7, 120 h, 1 μM Atovaquone, mammospheres, 5 days
  inhibition at 1 µM: > 85%

## COc1ccc2cc3[n+](cc2c1OC)CCc1cc2c(cc1-3)OCO2 [Berberine, Berberine Chloride]
MCF7-DoxyR cells [1]; [4]
  pIC50: ~6.00

## CNC(=O)c1cc(Oc2ccc(NC(=O)Nc3ccc(Cl)c(C(F)(F)F)c3)cc2)ccn1 [Sorafenib]
MCF7-DoxyR cells [1]; Homo sapiens, MCF7, read-out: IC-50, DoxyR CSC propagation
  pIC50: 6.00 to 6.30

## O=C(Nc1ccc([N+](=O)[O-])cc1Cl)c1cc(Cl)ccc1O [Niclosamide]
MCF7-DoxyR cells [1]; [5]
  pIC50: ~7.00

## CC(C)(C)C(O)/C=C/c1ccc2c(c1)OCO2 (centres unmarked) [Stiripentol]
MCF7-DoxyR cells [1]; [4]
  pIC50: 4.30 to 5.00

## O=CC[C@@H](O)[C@H](O)[C@H](O)CO [2-DG, 2-deoxy-glucose]
MCF7-DoxyR cells [1]; Homo sapiens, MCF7, 10 mM 2-DG, read-out: inhibition of propagation of DoxyR CSCs
  inhibition at 10000 µM: > 90%
MCF7-DoxyR cells [1]; Homo sapiens, MCF7, 20 mM 2-DG, read-out: inhibition of propagation of DoxyR CSCs
  inhibition at 20000 µM: 100%

## CCN(CC)CCCC(C)Nc1ccnc2cc(Cl)ccc12 (centres unmarked) [Chloroquine]
MCF7-DoxyR cells [1]; [6]
  inhibition at 25 µM: > 75%
  inhibition at 50 µM: > 90%

## CCc1c2c(nc3ccc(OC(=O)N4CCC(N5CCCCC5)CC4)cc13)-c1cc3c(c(=O)n1C2)COC(=O)[C@]3(O)CC [Irinotecan]
MCF7-DoxyR cells [1]; [5]
  pIC50: ~6.30

## C[C@H]1c2cccc(O)c2C(=O)C2=C(O)[C@]3(O)C(=O)C(C(N)=O)=C(O)[C@@H](N(C)C)[C@@H]3[C@@H](O)[C@@H]21 [doxycycline]
MCF7-DoxyR cells [2]
  reduction in cell migration (scratch assay): greater than 50%
MCF7-DoxyR cells [3]
  reduction in ability to proliferate (EdU-incorporation): more than 60%
